US20210220482A1, “MITOCHONDRIAL COPPER DEPLETION REPROGRAMS THE METABOLISM OF TRIPLE NEGATIVE BREAST CANCER” (The Board of Trustees of the Leland Stanford Junior …, priority 2019, published 2021)
Where two headings read alike, the source gives them in different places.

What was measured:
[1] = tested on: MDA-MB-231 and MDA-MB-468 cells; assay: Western blot of cleaved caspase 3 (apoptosis); type: cell-based, human; conditions: 24 h incubation; CDM 1 μM, ATN224 5 μM, inhibitors 1 μM
Experimental: Then cells were trypsinized, and cell lysates were prepared with RIPA buffer (Thermo, cat. no. 89900). The protein concentrations were quantified by Pierce BCA assay (Thermo Scientific, 23250). Cleaved caspase 3 antibody was purchased from Cell Signaling Technologies (Asp175, no. 9661). SOD1 antibody was from Santa Cruz Biotechnologies (sc-101523).

[2] = tested on: MDA-MB-231 orthotopic tumors; assay: Long-term survival study; type: in vivo, nude mice; conditions: i.v. weekly, seven doses, chelator 1.35 mg kg^−1; ATN224 oral gavage 0.7 mg kg^−1 d^−1
Excerpt: The SPN group received an i.v. injection of the same amount of SPN as in the CDN group weekly for seven doses in total. […] The treatment plan was initiated when the average tumor size reached 50 mm^3 and the endpoint of the survival study was primary tumor volume over 500 mm^3 and/or other signs identified by the veterinarian. The tumor volumes were continuously monitored over the treatment plan.

[3] = tested on: MDA-MB-231 and MDA-MB-468 cells; assay: OCR and ECAR measurement (Seahorse); type: cell-based, human; conditions: after 1 h of incubation, both cell lines, vs nontreated control
Experimental: OCR and ECAR measurement. OCR and ECAR were measured by a Seahorse Bioscience instrument (XF96, Agilent). Briefly, on the day following MDA-MB-231 or MDA-MB-468 cell seeding, cells were incubated with CDN or control agents for 24 h (chelator concentration, 1 μM). On the day of measurement, cells were washed three times with D-PBS, changed into fresh medium without phenol red and bicarbonate (Seahorse base medium, cat. no. 103336-100) and equilibrated for 30 min in a 37° C. incubator lacking CO2. Oxygen concentration and extracellular acidification in media were measured at basal conditions and after sequential addition of oligomycin (1 μM, introduced after 28 min), FCCP (1 μM, introduced after 54 min) and rotenone/antimycin A (0.5 μM, introduced after 80 min) (n=8 per condition for OCR and ECAR for each cell line). […] Cells were then changed into Seahorse base medium and equilibrated for 30 min in a 37° C. incubator lacking CO2. Oxygen concentration and extracellular acidification in media were measured at basal conditions and after sequential addition of oligomycin (1 μM, introduced after 28 min), FCCP (1 μM, introduced after 54 min) and rotenone/antimycin A (0.5 μM, introduced after 80 min) (n=6 per condition for OCR and ECAR for each cell line).

MDA-MB-231luc cells = assay: In vitro copper depletion (CCL-1 luminescence, CDM fluorescence); type: cell-based, human; conditions: CDN (CDM 1 μM) with excess EDTA, 24 h
Experimental: In vitro copper depletion: The copper level after CDN or control agent treatment was measured by CCL-1 luminescence imaging or ratiometric fluorescence microscopic imaging of fCDN. […] SPN, 50 μg ml-1) was added and incubation was continued for 24 h. […] Cells were immediately imaged by IVIS Spectrum (PerkinElmer) for 45 min. The integration images of luminescent radiance were presented. […] Images were processed as green/red ratios profiled by ImageJ and presented in pseudo-colors.

[4] = tested on: MDA-MB-231 and MDA-MB-468 cells; assay: Cell viability with ROS scavenger MitoTEMPO; type: cell-based, human; conditions: MitoTEMPO up to 5 μM
Experimental: Cytotoxicity: For the MTS assay, TNBC and normal cells were seeded into 96-well plates 24 h before the test and cultured in a humidified atmosphere of 5% CO2 and 95% air at 37° C. Cells were then incubated with CDN or control agents with the concentrations indicated in FIG. 2 in complete medium or base medium without FBS supplement. At 24 h after incubation, cells were washed with PBS three times and changed to fresh medium. The viability of the cells after treatment was measured using the MTS assay (CellTiter 96, Promega, cat. no. G3580). The viability was presented as the percentage of control (n=3 per condition for viability). For the trypan blue exclusion test, TNBC cells were seeded into six-well plates 24 h before the test and cultured in a humidified atmosphere of 5% CO2 and 95% air at 37° C. Cells were then incubated with CDN or control agents in complete medium. […] The viability of the cells was measured with Countess II (Life Technology). […]
Cellular ATP measurement: ATP levels after CDN or control agent treatment were determined by Adenosine 5-triphosphate Bioluminescent Somatic Cell Assay Kit (Sigma-Aldrich, FLASC). […] The luminescence signals were measured by a Turner Biosystems 20/20n luminometer. The ATP concentration of each group was determined based on the ATP standard assay (n=3 per condition ATP production measurement for each cell line).

MDA-MB-468 cells = assay: Cytotoxicity MTS assay, MDA-MB-468; type: cell-based, human; conditions: MDA-MB-468, 24 h, in the presence of serum
Experimental: (§1) Cytotoxicity: For the MTS assay, TNBC and normal cells were seeded into 96-well plates 24 h before the test and cultured in a humidified atmosphere of 5% CO2 and 95% air at 37° C. Cells were then incubated with CDN or control agents with the concentrations indicated in FIG. 2 in complete medium or base medium without FBS supplement. At 24 h after incubation, cells were washed with PBS three times and changed to fresh medium. The viability of the cells after treatment was measured using the MTS assay (CellTiter 96, Promega, cat. no. G3580). The viability was presented as the percentage of control (n=3 per condition for viability). For the trypan blue exclusion test, TNBC cells were seeded into six-well plates 24 h before the test and cultured in a humidified atmosphere of 5% CO2 and 95% air at 37° C. Cells were then incubated with CDN or control agents in complete medium. At 24 h after incubation, cells were washed with PBS three times and collected with a scraper. The cell suspension was then mixed with 0.4% trypan blue dye (1:1; Thermo Fisher Scientific, cat. no. 15250061) and incubated for less than 3 min at room temperature. The viability of the cells was measured with Countess II (Life Technology). The viability was presented as the percentage of control (n=3 per condition for viability).

MDA-MB-231 cells = assay: Cytotoxicity MTS assay, MDA-MB-231; type: cell-based, human; conditions: MDA-MB-231, 24 h, in the presence of serum, read-out: half-maximum inhibitory concentration (IC50)
Experimental: as §1

[5] = tested on: MDA-MB-231luc orthotopic breast cancer; assay: Copper level in tumor after treatment (CCL-1/d-luciferin imaging); type: in vivo, mice; conditions: i.v. 1.35 mg kg^−1 every 3 d, day 25, compared with the control group
Experimental: For the treatment group, mice were intravenously injected with CDN or control agents every 3 d, with five doses in total. Tumor volume was continuously monitored over the treatment plan. At day 25 after initial treatment, mice were subjected to d-luciferin bioluminescence imaging (150 mg kg^−1) and CCL-1 luminescence imaging (6 mg kg^−1).

In the case of C[N+](C)(C)CCO.C[N+](C)(C)CCO.[SH-].[SH-].[S]=[Mo]=[S] [ATN224], the “apoptosis (cleaved caspase 3)” value [1] is reported as “but not with ATN224 treatment” and the median survival [2] is reported as 32 days.
With Cc1cc(-c2nc(-c3ccc(OC(F)(F)F)cc3)no2)nn1Cc1ccnc(N2CCN(C3CC3)CC2)c1 [BAY 87-2243] the “apoptosis (cleaved caspase 3)” value [1] was “barely induced apoptosis” and the “oxygen consumption (OCR)” value [3] was “almost completely inhibited the oxygen consumption”.
For O=C(O)CN(CCN(CC(=O)O)CC(=O)O)CC(=O)O [EDTA, ethylenediaminetetraacetic acid], the “CCL-1 luminescence (labile copper)” value (MDA-MB-231luc cells) was 78.6±11.7 % of the CDN group and the CDM fluorescence (MDA-MB-231luc cells) was 123.7±4.1 % of the CDN group.
For Cc1nc(-c2nc(-c3ccc(OC(F)(F)F)cc3)no2)nn1Cc1cccc(N2CCC(S(C)(=O)=O)CC2)c1 [IACS-010759], the “apoptosis (cleaved caspase 3)” value [1] was “barely induced apoptosis” and the “oxygen consumption (OCR)” value [3] was “almost completely inhibited the oxygen consumption”.
In the case of CC1(C)CC(NC(=O)C[P+](c2ccccc2)(c2ccccc2)c2ccccc2)CC(C)(C)N1[O] [MitoTEMPO], the “rescue of cells from the CDN treatment effect” value ([4]; CDM 1 μM, 24 h) is reported as “did not rescue the cells” and the “effect on cell viability” value ([4]; medium with or without FBS) is reported as “will not affect the cell viability”.
With [SH-].[SH-].[S]=[Mo]=[S] [TM, tetrathiomolybdate] the IC50 (MDA-MB-468 cells) was ~46.3 µM and the IC50 (MDA-MB-231 cells) was > 100 µM.
For c1ccc(CN(Cc2ccccn2)Cc2ccccn2)nc1 [TPA, tris[(2-pyridyl)-methyl]amine], the IC50 (MDA-MB-468 cells; Homo sapiens) was 5.34 ± 1.12 µM, the “copper in the tumor region (CCL-1 to d-luciferin total flux ratio)” value [5] was “successfully depleted the copper in the tumor region” and the IC50 (MDA-MB-231 cells; Homo sapiens) was 9.25 ± 2.19 µM. The median survival [2] was 35 days.
